Patent US12384772B2, “Inhibitors” (VIVORYON THERAPEUTICS N.V., priority 2017, dated 2025)
Like-named read-outs stand apart in the source and are kept apart here.

Molecular target: Glutaminyl cyclase (QC) (Homo sapiens (Human), UniProt Q16769)
Test: Glutaminyl cyclase assay, determination of IC50 values and calculation of Ki values (H-Gln-AMC substrate, pGAP auxiliary enzyme; pH 8.0 or pH 6.0)
Type: biochemical
Method: 10 mM compound stock solutions were prepared in DMSO. For IC50 determination compound stocks were serially diluted (1:3) in DMSO.
All measurements were performed with an EnSpire Perkin Elmer multimode reader using glutaminyl-7-amino-4-methylcoumarin (H-Gin-AMC) as substrate and recombinant pyroglutamyl aminopeptidase (pGAP) as auxiliary enzyme. Reactions were carried out at ambient temperature in black 96-well half area microplates. Each sample consisted of 1 μl test compound solution or solvent (DMSO) and 49 μl QC appropriately diluted in assay buffer (50 mM Tris/HCl, pH 8.0 or 50 mM MES buffer, pH=6.0). After a 10 min preincubation at ambient temperature the enzyme reaction was started by adding 50 μl of Gln-AMC-substrate/pGAP mixture in assay buffer. Final substrate concentrations were 50 and 200 μM for measurement at pH 8.0 or 6.0, respectively. Release of flourogenic AMC were recorded at excitation/emission wavelengths of 380/460 nm. Initial velocity of the enzyme reaction was calculated by linear regression of the first 10 data points using the Enspire Manager software. Final evaluation and calculation of IC50s were performed using GraphPad Prism software.
Ki-values were calculated according to the following formula: Ki=IC50/(1+[S]/Km), where: […]

[1] = pH 6, read-out: hQC Ki [μM] pH6
[2] = pH 8, read-out: hQC Ki [μM] pH8

Glutaminyl cyclase (QC), sequence (Q16769 29-361): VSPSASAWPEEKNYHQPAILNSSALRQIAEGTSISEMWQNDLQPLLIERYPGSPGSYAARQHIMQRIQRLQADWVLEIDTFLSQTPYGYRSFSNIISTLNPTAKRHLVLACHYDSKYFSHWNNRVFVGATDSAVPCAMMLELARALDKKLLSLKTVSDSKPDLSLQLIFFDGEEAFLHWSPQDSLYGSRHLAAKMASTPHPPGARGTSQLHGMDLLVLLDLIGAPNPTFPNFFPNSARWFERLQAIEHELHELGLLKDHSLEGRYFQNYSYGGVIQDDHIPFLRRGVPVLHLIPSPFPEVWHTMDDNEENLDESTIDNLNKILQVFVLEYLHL

Structure (SMILES) | Ki [1] [µM] | Ki [2] [µM]
COc1ccc(-c2ccccc2Nc2ccc(-c3nnc(N)s3)cc2)cc1 [C4, 5-(4-{[2-(4-methoxyphenyl)phenyl]amino}phenyl)-1,3,4-thiadiazol-2-amine] | 1.87 | 1.48
COc1ccc(-c2cccnc2Nc2ccc(-c3nnc(N)s3)cc2)cc1 [C5, N-[4-(5-amino-1,3,4-thiadiazol-2-yl)phenyl]-3-(4-methoxyphenyl)pyridin-2-amine] | 4.17 | 4.7
COc1ccc(-c2cnccc2Nc2ccc(-c3nnc(N)s3)cc2)cc1 [C6, N-[4-(5-amino-1,3,4-thiadiazol-2-yl)phenyl]-3-(4-methoxyphenyl)pyridin-4-amine] | 7.16 | 4.22
COc1ccc(-c2cnccc2Nc2ccc(-c3nnc(N)s3)cc2)cc1OC [C7, N-[4-(5-amino-1,3,4-thiadiazol-2-yl)phenyl]-3-(3,4-dimethoxyphenyl)pyridin-4-amine] | 54.7 | 7.46
Nc1nnc(-c2ccc(Nc3nccnc3-c3ccc(F)cc3)cc2)s1 [C9, N-[4-(5-amino-1,3,4-thiadiazol-2-yl)phenyl]-3-(4-fluorophenyl)pyrazin-2-amine] | 1.66 | 6.89
Nc1nnc(-c2ccc(Nc3ccccc3-c3ccc(Oc4ccccc4)cc3)cc2)s1 [C10, 5-(4-{[2-(4-phenoxyphenyl)phenyl]amino}phenyl)-1,3,4-thiadiazol-2-amine] | 4.37 | 2.23
CCCOc1ccc(-c2ccccc2Nc2ccc(-c3nnc(N)s3)cc2)cc1 [C11, 5-(4-([2-(4-propoxyphenyl)phenyl]amino)phenyl)-1,3,4-thiadiazol-2-amine] | 2.15 | 2.36
CC(C)Oc1ccc(-c2ccccc2Nc2ccc(-c3nnc(N)s3)cc2)cc1 [C12, 5-[4-({2-[4-{propan-2-yloxy)phenyl]phenyl}amino)phenyl]-1,3,4-thiadiazol-2-amine] | 1.51 | 3.27
Nc1nnc(CCCNc2ccccc2-c2ccc(F)cc2)s1 [Comp 93, 5-[3-({4′-fluoro-[1,1′-biphenyl]-2-yl}amino)propyl]-1,3,4-thiadiazol-2-amine] | 2.6 | 1100
Nc1nnc(SCCNc2ccccc2-c2ccc(F)cc2)s1 [Comp 94, 5-{[2-({4′-fluoro-[1,1′-biphenyl]-2-yl}amino)ethyl]sulfanyl}-1,3,4-thiadiazol-2-amine] | 2.97 | 11.5
COc1ccc(-c2ccccc2NCCSc2nnc(N)s2)cc1OC [Comp 178, 5-{[2-({3′,4′-dimethoxy-[1,1′-biphenyl]-2-yl}amino)ethyl]sulfanyl}-1,3,4-thiadiazol-2-amine] | 1.1 | 0.97
Cn1cnnc1CCCNc1ccccc1-c1ccc(F)cc1 [Comp 328, 4′-fluoro-N-[3-(4-methyl-4H-1,2,4-triazol-3-yl)propyl]-[1,1′-biphenyl]-2-amine] | 1.97 | 2.86
COc1ccc(-c2ccccc2NCCCc2nncn2C)cc1OC [Comp 384, 3′,4′-dimethoxy-N-[3-(4-methyl-4H-1,2,4-triazol-3-yl)propyl]-[1,1′-biphenyl]-2-amine] | 0.13 | 0.26
Nc1nnc(-c2ccc(Nc3ncccc3-c3ccc(F)cc3)cc2)s1 [Comp 521, N-[4-(5-amino-1,3,4-thiadiazol-2-yl)phenyl]-3-(4-fluorophenyl)pyridin-2-amine] | 2.69 | 4.27
COc1ccc(-c2ccccc2Nc2ccc(-c3nnc(N)s3)cc2)cc1OC [Comp 561, 5-(4-{[2-(3,4-dimethoxyphenyl)phenyl]amino}phenyl)-1,3,4-thiadiazol-2-amine] | 0.42 | 1.09
Cn1cnnc1-c1ccc(Nc2ccccc2-c2ccc(F)cc2)cc1 [Comp 826, 4′-fluoro-N-[4-(4-methyl-4H-1,2,4-triazol-3-yl)phenyl]-[1,1‘-biphenyl]-2-amine] | 1.44 | 1.74
Cn1cnnc1-c1ccc(Nc2cccnc2-c2ccc(F)cc2)cc1 [Comp 852, 2-(4-fluorophenyl)-N-[4-(4-methyl-4H-1,2,4-triazol-3-yl)phenyl]pyridin-3-amine] | 2.69 | 5.05
COc1ccc(-c2ccccc2Nc2ccc(-c3nncn3C)cc2)cc1OC [Comp 854, 3′,4′-dimethoxy-N-[4-(4-methyl-4H-1,2,4-triazol-3-yl)phenyl]-[1,1′-biphenyl]-2-amine] | 0.44 | 1.48
Nc1nnc(C2CCN(c3ccccc3-c3ccc(F)cc3)CC2)s1 [Comp 1075, 5-(1-{4′-fluoro-[1,1′-biphenyl]-2-yl}piperidin-4-yl)-1,3,4-thiadiazol-2-amine] | 0.09 | 0.248
Fc1ccc(-c2ccccc2NCc2ccc3[nH]cnc3c2)cc1 [Comp 1226, N-[(1H-1,3-benzodiazol-5-yl)methyl]-4′-fluoro-[1,1′-biphenyl]-2-amine] | 5.91 | 5.29
Fc1ccc(-c2cccnc2NCc2ccc3[nH]cnc3c2)cc1 [Comp 1234, N-(1H-1,3-benzodiazol-5-ylmethyl)-3-(4-fluorophenyl)pyridin-2-amine] | 58.8 | 12.3

Next, values leading:

Ki [1] [µM] | Ki [2] [µM] | Structure (SMILES)
145 | 22 | Fc1ccc(-c2ncccc2NCc2ccc3[nH]cnc3c2)cc1 [Comp 1252, N-(1H-1,3-benzodiazol-5-ylmethyl)-2-(4-fluorophenyl)pyridin-3-amine]
0.12 | 0.27 | COc1ccc(-c2ccccc2NCc2ccc3[nH]cnc3c2)cc1OC [Comp 1254, N-[(1H-1,3-benzodiazol-5-yl)methyl]-3′,4′-dimethoxy-[1,1′-biphenyl]-2-amine]
0.1 | 0.23 | COc1ccc(-c2cccnc2NCc2ccc3[nH]cnc3c2)cc1OC [Comp 1262, N-(1H-1,3-benzodiazol-5-ylmethyl)-3-(3,4-dimethoxyphenyl)pyridin-2-amine]
13.6 | 11.8 | COc1ccc(NS(=O)(=O)NCCSc2nncn2C)cc1OC [Comp 1332, [(3,4-dimethoxyphenyl)sulfamoyl]({2-[(4-methyl-4H-1,2,4-triazol-3-yl)sulfanyl]ethyl})amine]
0.99 | 1.69 | COc1ccc(-c2ccccc2Nc2ccc(-c3nncn3C)cc2)cc1 [D3, N-[2-(4-methoxyphenyl)phenyl]-4-(4-methyl-4H-1,2,4-triazol-3-yl)aniline]
1.7 | 3.37 | COc1ccc(-c2ncccc2Nc2ccc(-c3nncn3C)cc2)cc1 [D4, 2-(4-methoxyphenyl)-N-[4(4-methyl-4H-1,2,4-triazol-3-yl)phenyl]pyridin-3-amine]
1.33 | 1.81 | Cn1cnnc1-c1ccc(Nc2ccccc2-c2ccc(Oc3ccccc3)cc2)cc1 [D6, 4-(4-methyl-4H-1,2,4-triazol-3-yl)-N-[2-(4-phenoxyphenyl)phenyl]aniline]
– | 10.1 | COc1ccc(-c2cnccc2Nc2ccc(-c3nncn3C)cc2)cc1OC [D7, 3-(3,4-dimethoxyphenyl)-N-[4-(4-methyl-4H-1,2,4-triazol-3-yl)phenyl]pyridin-4-amine]
18.1 | 9.38 | Nc1nnc(CCCNS(=O)(=O)c2ccc(F)cc2)s1 [E2, N-[3-(5-amino-1,3,4-thiadiazol-2-yl)propyl]-4-fluorobenzene-1-sulfonamide]
19.9 | 26.5 | Nc1nnc(SCCNS(=O)(=O)c2ccc(F)cc2)s1 [E3, N-{2-[(5-amino-1,3,4-thiadiazol-2-yl)sulfanyl]ethyl}-4-fluorobenzene-1-sulfonamide]
11.4 | 11.7 | CS(=O)(=NCCCc1nnc(N)s1)c1ccc(F)cc1 (centres unmarked) [F2, 5-(3-{[(4-fluorophenyl)(methyl)oxo-λ^6-sulfanylidene]amino}propyl)-1,3,4-thiadiazol-2-amine]
8.84 | 11.5 | Cn1cnnc1SCCNS(=O)(=O)c1ccc(F)cc1 [G2, 4-fluoro-N-{2-[(4-methyl-4H-1,2,4-triazol-3-yl)sulfanyl]ethyl}benzene-1-sulfonamide]
2.93 | 2.64 | Nc1ncc(-c2ccc(NS(=O)(=O)c3ccc(F)cc3)cc2)s1 [I1, N-[4-(2-amino-1,3-thiazol-5-yl)phenyl]-4-fluorobenzene-1-sulfonamide]
1.32 | 1.7 | Nc1ncc(C2CCN(S(=O)(=O)c3ccc(F)cc3)CC2)s1 [M1, 5-[1-(4-fluorobenzenesulfonyl)piperidin-4-yl]-1,3-thiazol-2-amine]
1.18 | 1.6 | Nc1nnc(C2CCN(S(=O)(=O)c3ccc(F)cc3)CC2)s1 [M2, 5-[1-(4-fluorobenzenesulfonyl)piperidin-4-yl]-1,3,4-thiadiazol-2-amine]
3.05 | 3.3 | Cn1cnnc1C1CCN(S(=O)(=O)c2ccc(F)cc2)CC1 [N1, 1-(4-fluorobenzenesulfonyl)-4-(4-methyl-4H-1,2,4-triazol-3-yl)piperidine]
1.44 | 1.65 | COc1ccc(-c2ccccc2NCc2ccc3[nH]cnc3c2)cc1 [O3, N-(1H-1,3-benzodiazol-5-ylmethyl)-2-(4-methoxyphenyl)aniline]
9.52 | 2.96 | COc1ccc(-c2ncccc2NCc2ccc3[nH]cnc3c2)cc1 [O4, N-(1H-1,3-benzodiazol-5-ylmethyl)-2-(4-methoxyphenyl)pyridin-3-amine]
